Where “and” joins values, the source holds several entries; their conditions need not be identical. Equal values may be shown once.
Legend:
human neutrophils = details: Simpkins et al. 1985; cited from earlier work
[1] = Battion et al. 1968; cited from earlier work
[2] = 1 atm; from The Engineering Toolbox; cited from earlier work
[3] = Nitric oxide uptake/content of soybean oil emulsion by mass spectrometry
Experimental: Some samples (1 ml each) were left open to air in 2.0 ml tubes for 30 minutes prior to dissolved gas analysis. In other experiments the emulsion was placed into a 15 ml tube. The headspace was filled with the gas under study and the gas was allowed to enter the emulsion by equilibration over 60 minutes with the tube on its side to increase the gas emulsion interaction. 50 μL drawn from each of these fluids were injected into a Sievers purge vessel at 37° C. containing 36 ml of a mildly acidic solution consisting of 32 ml of 1M HCL and 4 ml of 0.5M ascorbic acid. […] Signals generated at m/z=32 upon injection of RL and lipid emulsion samples were integrated using Peakfit and compared to those obtained with distilled water.
In another set of experiments we measured the uptake of nitric oxide by a commercially available 20% soybean oil emulsion, Liposyn III 20%. This emulsion contains 20% soybean oil, 1.2% egg phospholipids and 2.5% glycerin in water. Using NaOH pH was adjusted to 8.3. […] 100 ppm nitric oxide in helium was used to purge the hesdspace for two minutes taking care not to bubble the fluid. For sixty minutes the sample was allowed to reach gas-liquid equilibrium with the tube placed on its side to maximize gas-emulsion contact.
The uptake of NO and O2 by a commercial 20% soybean oil emulsion, Liposyn, was measured using mass spectrometry. […] To approximate field conditions, no warming or respiratory support was provided. Next, 55% of blood volume was removed within 2 minutes. […] The time of clinical death was defined as the cessation of respiration. […] In 5 mice a volume of Ringer's lactate equal to the volume of blood removed was administered via the internal jugular vein over 2 minutes immediately after the loss of chest wall movement. […] In 6 mice a volume of Ringer's lactate equal to the volume of blood removed was administered via the carotid artery over 2 minutes. […] In the next set of experiments, infusing Ringers' lactate was delayed for 3 minutes. […] A volume of emulsion equal to the volume of blood that had been removed was infused.

[4] = anesthetic; cited from earlier work
[5] = published value; cited from earlier work

C=CCN1CC[C@]23c4c5ccc(O)c4O[C@H]2C(=O)CC[C@]3(O)[C@H]1C5 [(+) naloxone]
concentration range that produces anti-inflammatory effect (human neutrophils): 10^−5-10^−4 M

O=O [Oxygen]
solubility in lipid relative to water [1]: 4.41 times

O [Water]
Oxygen Content at 25° C. and Sea level Pressure [2]: 8.3 mg/L
NO Content, single sample ([3]; 100 ppm nitric oxide in helium headspace, 60 min equilibration): 2.29 mol/L and 1.52 mol/L and 1.63 mol/L and 1.72 mol/L and 1.69 mol/L
NO Content, Mean ([3]; 100 ppm nitric oxide in helium headspace, 60 min equilibration, 5 samples): 1.77 mol/L
NO content ([3]; mass spectrometry, Example 7): 2.12×10^−3±0.17 moles/L

[Xe] [Xenon]
minimum alveolar concentration (MAC) [4]: 71%

hemoglobin
oxygen release time [5]: 17.5 ms
